Results published in article PMC11267363, “Supramolecular Nanofibers Ameliorate Bleomycin‐Induced Pulmonary Fibrosis by Restoring Autophagy” (Advanced Science, 2024).
Ends that are not written are not given here.

How the values were obtained:
TRB3/p62 PPIs = target: T1, TRB3/p62 PPIs (Homo sapiens, UniProt Q96RU7); test: Co-immunoprecipitation and CLSM co-localization of TRB3/p62 in activated MRC-5 cells; type: cell-based; settings: TGF-β1 10 ng/mL, peptide 50 µM, 24 h
T1 construct: endogenous in cells
T1 sequence (Q96RU7 1-358): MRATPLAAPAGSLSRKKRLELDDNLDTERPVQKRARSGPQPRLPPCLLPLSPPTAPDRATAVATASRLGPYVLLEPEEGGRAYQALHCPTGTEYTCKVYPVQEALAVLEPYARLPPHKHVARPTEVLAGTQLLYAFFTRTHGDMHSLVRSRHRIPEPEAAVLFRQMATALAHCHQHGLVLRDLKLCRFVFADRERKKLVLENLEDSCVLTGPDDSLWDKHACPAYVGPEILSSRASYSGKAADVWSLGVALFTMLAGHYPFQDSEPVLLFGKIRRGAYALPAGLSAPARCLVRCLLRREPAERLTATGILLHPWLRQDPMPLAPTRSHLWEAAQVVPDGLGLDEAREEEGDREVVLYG
Procedure: The MRC‐5 cells were seeded on the CLSM dish at a density of 6 × 10^4 cells. After adherence, the solution containing TGF‐β1 (10 ng mL^−1), saline plus TGF‐β1 (10 ng mL^−1), A2 (50 µM) plus TGF‐β1 (10 ng mL^−1), Ac‐GFFY‐A2 (50 µM) TGF‐β1 (10 ng mL^−1), was added to incubate cells for 24 h, respectively. Then, the medium was removed and the cells were washed with cold PBS three times. The cells were fixed with 4% of Paraformaldehyde for 10 min at room temperature. Then, the solution was sucked away, and washed by cold PBS three times for a min each time. 0.1% Triton X‐100 solution was used to disrupt the cell membrane structure. […]
Total proteins were exacted from cells or tissues with RIPA lysis buffer (Beyotime Biotecnology). The protein concentration was measured using BCA Protein Assay Kit (Thermo Scientific). […] The protein transferred PVDF membranes were incubated with following primary antibodies at 4°C overnight: Then the membranes were incubated with horseradish peroxidase (HRP)-conjugated secondary antibodies at room temperature for 1 h, and protein signals were detected using an enhanced chemiluminescence kit (Pierce). […] The co -precipitates were resolved using SDS–PAGE and detected with immunoblotting. […]
Hydroxyproline content of right lung of each mouse was measured using a conventional hydroxyproline method as previously described.

[1] = Self-assembly in saline buffer (Tyndall path, TEM nanostructure); type: physicochemical
From the text: To verify our hypothesis, we utilized the self‐assembling factor (Acetyl‐Gly‐Phe‐Phe‐Tyr, Ac‐GFFY) to regulate the secondary conformation of A2 peptide (GGWLTRLLQTK) from p62 UBA domain binding with TRB3.^[ [16] ^] The self‐assembling factor Ac‐GFFY was covalently attached to the N‐terminal of peptide A2 to introduce Ac‐GFFY‐A2 (Figure 2a) as a modulator of the TRB3/p62 PPIs, non‐self‐assembling peptide A2 as the control group. Both of those peptide compounds were synthesized by standard solid phase peptide synthesis (SPPS), purified by reversed‐phase high‐performance liquid chromatography (HPLC), and identified through the high‐resolution mass spectrometry (HR‐MS, Figures S4 and S5, Supporting Information). The 0.5 wt% of peptide Ac‐GFFY‐A2 could observe an obvious “Tyndall path” in saline buffer (0.9% NaCl) after the heating‐cooling process (Figure S13, Supporting Information), compared with peptide A2 solution (0.5 wt%, saline buffer). The critical aggregation concentration (CAC) of those compounds was detected by dynamic light scattering. […] Furthermore, a transmission electron microscope (TEM) was used to observe the nanostructures formed by different compounds. Ac‐GFFY‐A2 could self‐assemble and form entangled nanofibers with a diameter of 8–12 nm (Figure 2b).
Transmission electron microscopy (TEM)
The samples (0.5 wt%, 10 μL) were loaded onto copper mesh coated with carbon.
After excess liquid was removed by a filter paper, 2% uranium acetate was used for dyeing the sample for 1 minute and the sample was dried overnight in a dryer. The samples were then imaged at 200 kV using a Tecnai G2 F20 system.
Circular dichroism (CD) spectrum
A BioLogic (MOS-450) system was used to record the circular dichroism spectrum.
Test wavelengths was in the range from 180 nm to 280 nm. […]
The CAC values were determined by dynamic light scattering (DLS). Solutions containing different concentration of compound in saline buffer were tested and the light scattering intensity was recorded for each concentration analyzed. […]

Substance | disruption of TRB3/p62 PPIs (co-IP, co-localization) (TRB3/p62 PPIs) | Tyndall path ([1]; 0.5 wt% in saline buffer (0.9% NaCl) after heating-cooling process) | diameter of entangled nanofibers (TEM) ([1]; 0.5 wt% in saline buffer after heating-cooling process, TEM) | nanostructure in TEM image ([1]; 0.5 wt%, saline buffer, TEM)
Ac-GFFYGGWLTRLLQTK-OH [Ac-GFFY-A2] | successfully inhibited the TRB3/p62 PPIs | obvious | 8–12 nm | –
GGWLTRLLQTK-OH [A2, reference compound] | minimal capacity to disrupt the TRB3/p62 PPIs | – | – | amorphous structures
